From patent US20220370416A1, “COMPOUNDS AND METHODS FOR TARGETED DEGRADATION OF KRAS” (Arvinas Operations, Inc., priority 2020, published 2022)

How the values were obtained:
[1] = molecular target: T1, HiBit-KRAS^G12C (Homo sapiens, UniProt P01116, G12C); experiment: HiBit degradation assay in MiaPaCa-2 HiBit-KRas^G12C cells; assay type: cell-based; details: 24 hours; for Dmax: MIA PaCa-2, MiaPaCa-2 HiBit-KRas^G12C cells, maximum degradation; for DC50: MiaPaCa-2 HiBit-KRas^G12C cells
Method in brief: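 MiaPaCa-2 cells with CRISPR N-terminal HiBit knock-in on one endogenous KRAS^G12C allele, treated 24 hours at 37° C with compound titrated 10 μM to 20 nM (0.1% or 0.5% DMSO). Lytic HiBit luminescence normalized to DMSO, 4-parameter fit giving DC50 and Dmax; points cytotoxic to […] cells by alamar blue excluded.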

[2] = molecular target: T1, HiBit-KRAS^G12C; experiment: HiBit degradation assay in SW1573 HiBit-KRas^G12C cells; assay type: cell-based; parameters: expressed in transfected cells; host or cells: SW1573 (clone E6), modified pcDNA3.1 vector, TK promoter; details: 24 hours
Method in brief: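 SW1573 cells stably expressing N-terminally HiBit-tagged KRAS G12C, under the TK promoter, were treated 24 h at 37 °C with 10 μM to 20 nM compound in 0.1% or 0.5% DMSO. Residual HiBit luminescence normalised to DMSO and fitted with a 4-parameter model for DC50 and Dmax. Points with ≥50% viability loss (alamar blue) excluded.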

[3] = 0.1% DMSO, read-out: KRas^G12C-HiBiT (MiaPaCa; 0.1% DMSO) DMax
[4] = 0.5% DMSO, read-out: KRas^G12C-HiBiT (MiaPaCa; 0.5% DMSO) DMax
[5] = SW1573, SW1573 HiBit-KRas^G12C, 0.1% DMSO, read-out: KRas^G12C-HiBit (SW1573; 0.1% DMSO) Dmax**
[6] = SW1573, SW1573 HiBit-KRas^G12C, 0.5% DMSO, read-out: KRas^G12C-HiBiT (SW1573; 0.5% DMSO) Dmax**
[7] = SW1573 HiBit-KRas^G12C, 0.1% DMSO, read-out: KRas^G12C-HIBit (SW1573; 0.1% DMSO) DC50*
[8] = read-out: KRas^G12C-HiBiT (MiaPaCa; 0.5% DMSO) IC50, 0.5% DMSO
[9] = read-out: KRas^G12C-HiBiT (SW1573; 0.5% DMSO) IC50***, SW1573 HiBit-KRas^G12C, 0.5% DMSO

T1 sequence (P01116 1-186 isoform P01116-2 G12C limits assumed): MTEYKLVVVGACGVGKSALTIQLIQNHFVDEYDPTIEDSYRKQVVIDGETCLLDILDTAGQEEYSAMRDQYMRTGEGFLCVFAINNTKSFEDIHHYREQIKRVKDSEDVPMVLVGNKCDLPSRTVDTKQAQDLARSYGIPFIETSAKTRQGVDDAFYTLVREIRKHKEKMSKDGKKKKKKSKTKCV

SMILES | Dmax [1, 3] | Dmax [1, 4] | Dmax [2, 5] | Dmax [2, 6] | DC50 [2, 7] | DC50 [1, 8] | DC50 [2, 9] | DC50 ([1]; read-out: KRas^G12C-HiBiT (MiaPaCa; 0.1% DMSO) IC50, 0.1% DMSO) | Dmax ([2]; SW1573, read-out: KRas^G12C-HiBit (SW1573; 0.1% DMSO) Dmax**, SW1573 HiBit-KRas^G12C, 0.1% DMSO)
C=CC(=O)N1CCN(c2nc(OCCN3CCC(COCC(=O)N[C@H](C(=O)N4C[C@H](O)C[C@H]4C(=O)N[C@@H](C)c4ccc(-c5scnc5C)cc4)C(C)(C)C)CC3)nc3c(F)c(-c4nc(NC)cc(C)c4C(F)(F)F)c(Cl)cc23)C[C@@H]1CC#N [Compound 98, (2S,4R)-1-[(2S)-2-[2-({1-[2-({6-chloro-4-[(3S)-3-(cyanomethyl)-4-(prop-2-enoyl)piperazin-1-yl]-8-fluoro-7-[4-methyl-6-(methylamino)-3-(trifluoromethyl)pyridin-2-yl]quinazolin-2-yl}oxy)ethyl]piperidin-4-yl}methoxy)acetamido]-3,3-dimethylbutanoyl]-4-hydroxy-N-[(1S)-1-[4-(4-methyl-1,3-thiazol-5-yl)phenyl]ethyl]pyrrolidine-2-carboxamide] | – | > 70% | – | > 70% | – | 0.1 to 1 µM | 0.1 to 1 µM | – | –
C=CC(=O)N1CCN(c2nc(O[C@H](C)CN3CCC(OCCOC4CN(CC(=O)N[C@H](C(=O)N5C[C@H](O)C[C@H]5C(=O)N[C@@H](C)c5ccc(-c6scnc6C)cc5)C(C)(C)C)C4)CC3)nc3c(F)c(-c4cc(O)cc5ccccc45)c(Cl)cc23)CC1 [Compound 53, (2S,4R)-1-[(2S)-2-(2-{3-[2-({1-[(2R)-2-{[6-chloro-8-fluoro-7-(3-hydroxynaphthalen-1-yl)-4-[4-(prop-2-enoyl)piperazin-1-yl]quinazolin-2-yl]oxy}propyl]piperidin-4-yl}oxy)ethoxy]azetidin-1-yl}acetamido)-3,3-dimethylbutanoyl]-4-hydroxy-N-[(1S)-1-[4-(4-methyl-1,3-thiazol-5-yl)phenyl]ethyl]pyrrolidine-2-carboxamide] | – | – | – | – | 0.1 to 1 µM | – | – | > 1 µM | < 35%
C=CC(=O)N1CCN(c2nc(O[C@@H]3CCC[C@H]3N3CCC(COCC(=O)N[C@H](C(=O)N4C[C@H](O)C[C@H]4C(=O)N[C@@H](C)c4ccc(-c5scnc5C)cc4)C(C)(C)C)CC3)nc3c(F)c(-c4cc(O)cc5ccccc45)c(Cl)cc23)C[C@@H]1CC#N [Compound 130, (2S,4R)-1-[(2S)-2-[2-({1-[(1R,2R)-2-({6-chloro-4-[(3S)-3-(cyanomethyl)-4-(prop-2-enoyl)piperazin-1-yl]-8-fluoro-7-(3-hydroxynaphthalen-1-yl)quinazolin-2-yl}oxy)cyclopentyl]piperidin-4-yl}methoxy)acetamido]-3,3-dimethylbutanoyl]-4-hydroxy-N-[(1S)-1-[4-(4-methyl-1,3-thiazol-5-yl)phenyl]ethyl]pyrrolidine-2-carboxamide] | – | 35 to 70% | – | > 70% | – | 0.1 to 1 µM | 0.1 to 1 µM | – | –
C=C(F)C(=O)N1CCN(c2nc(OCCN3CCC(COc4cc([C@H](C(=O)N5C[C@H](O)C[C@H]5C(=O)N[C@@H](C)c5ccc(-c6ccnn6C)cc5)C(C)C)on4)CC3)nc3c(F)c(-c4cc(O)cc5ccccc45)c(Cl)cc23)C[C@@H]1CC#N [Compound 156, (2S,4R)-1-[(2R)-2-[3-({1-[2-({6-chloro-4-[(3S)-3-(cyanomethyl)-4-(2-fluoroprop-2-enoyl)piperazin-1-yl]-8-fluoro-7-(3-hydroxynaphthalen-1-yl)quinazolin-2-yl}oxy)ethyl]piperidin-4-yl}methoxy)-1,2-oxazol-5-yl]-3-methylbutanoyl]-4-hydroxy-N-[(1S)-1-[4-(1-methyl-1H-pyrazol-5-yl)phenyl]ethyl]pyrrolidine-2-carboxamide] | – | – | – | – | – | 0.1 to 1 µM | < 0.1 µM | – | –
C=C(F)C(=O)N1CCN(c2nc(OCCN3CCC(COc4cc([C@@H](C(=O)N5C[C@H](O)C[C@H]5C(=O)N[C@@H](C)c5ccc(-c6scnc6C)cc5)C(C)C)on4)CC3)nc3c(F)c(-c4cc(O)cc5ccccc45)c(Cl)cc23)C[C@@H]1CC#N [Compound 171, (2S,4R)-1-[(2S)-2-[3-({1-[2-({6-chloro-4-[(3S)-3-(cyanomethyl)-4-(2-fluoroprop-2-enoyl)piperazin-l-yl]-8-fluoro-7-(3-hydroxynaphthalen-1-yl)quinazolin-2-yl}oxy)ethyl]piperidin-4-yl}methoxy)-1,2-oxazol-5-yl]-3-methylbutanoyl]-4-hydroxy-N-[(1S)-1-[4-(4-methyl-1,3-thiazol-5-yl)phenyl]ethyl]pyrrolidine-2-carboxamide] | – | – | – | – | – | > 1 µM | > 1 µM | – | –

Now from value to molecule, other results behind:

Dmax [1, 3] | Dmax [1, 4] | Dmax [2, 5] | Dmax [2, 6] | DC50 [2, 7] | DC50 [1, 8] | DC50 [2, 9] | SMILES | DC50 ([1]; read-out: KRas^G12C-HiBiT (MiaPaCa; 0.1% DMSO) IC50, 0.1% DMSO) | Dmax ([2]; SW1573, read-out: KRas^G12C-HiBit (SW1573; 0.1% DMSO) Dmax**, SW1573 HiBit-KRas^G12C, 0.1% DMSO)
< 35% | < 35% | 35 to 70% | 35 to 70% | > 1 µM | – | – | C=CC(=O)N1CCN(c2nc(O[C@H](C)CN3CCC(OCCOCC(=O)N[C@H](C(=O)N4C[C@H](O)C[C@H]4C(=O)N[C@@H](C)c4ccc(-c5scnc5C)cc4)C(C)(C)C)CC3)nc3c2CCN(c2cc(O)cc4ccccc24)C3)C[C@@H]1CC#N [Compound 31, (2S,4R)-1-[(2S)-2-{2-[2-({1-[(2R)-2-({4-[(3S)-3-(cyanomethyl)-4-(prop-2-enoyl)piperazin-1-yl]-7-(3-hydroxynaphthalen-1-yl)-5H,6H,7H,8H-pyrido[3,4-d]pyrimidin-2-yl}oxy)propyl]piperidin-4-yl}oxy)ethoxy]acetamido}-3,3-dimethylbutanoyl]-4-hydroxy-N-[(1S)-1-[4-(4-methyl-1,3-thiazol-5-yl)phenyl]ethyl]pyrrolidine-2-carboxamide] | – | –
< 35% | – | 35 to 70% | – | 0.1 to 1 µM | – | – | C=CC(=O)N1CCN(c2nc(OCCCN3CCC(OCC(=O)N[C@H](C(=O)N4C[C@H](O)C[C@H]4C(=O)N[C@@H](C)c4ccc(-c5scnc5C)cc4)C(C)(C)C)CC3)nc3c(F)c(-c4cc(O)cc5ccccc45)c(Cl)cc23)CC1 [Compound 25, (2S,4R)-1-[(2S)-2-(2-{[1-(3-{[6-chloro-8-fluoro-7-(3-hydroxynaphthalen-1-yl)-4-[4-(prop-2-enoyl)piperazin-1-yl]quinazolin-2-yl]oxy}propyl)piperidin-4-yl]oxy}acetamido)-3,3-dimethylbutanoyl]-4-hydroxy-N-[(1S)-1-[4-(4-methyl-1,3-thiazol-5-yl)phenyl]ethyl]pyrrolidine-2-carboxamide] | – | –
– | > 70% | – | > 70% | – | 0.1 to 1 µM | 0.1 to 1 µM | C=CC(=O)N1CCN(c2nc(OCCN3CCC(COCC(=O)N[C@H](C(=O)N4C[C@H](O)C[C@H]4C(=O)N[C@@H](C)c4ccc(-c5ccnn5C)cc4)C(C)(C)C)CC3)nc3c(F)c(-c4cc(O)cc5ccccc45)c(Cl)cc23)C[C@@H]1CC#N (atropisomer, axis not shown) [Compound 136, (2S,4R)-1-[(2S)-2-[2-({1-[2-({6-chloro-4-[(3S)-3-(cyanomethyl)-4-(prop-2-enoyl)piperazin-1-yl]-8-fluoro-7-(3-hydroxynaphthalen-1-yl)quinazolin-2-yl}oxy)ethyl]piperidin-4-yl}methoxy)acetamido]-3,3-dimethylbutanoyl]-4-hydroxy-N-[(1S)-1-[4-(1-methyl-1H-pyrazol-5-yl)phenyl]ethyl]pyrrolidine-2-carboxamide] | – | –
– | < 35% | – | – | – | 0.1 to 1 µM | > 1 µM | C=CC(=O)N1CCN(c2nc(OCCN3CCC(COc4cc([C@@H](C(=O)N5C[C@H](O)C[C@H]5C(=O)N[C@@H](C)c5ccc(-c6scnc6C)cc5)C(C)C)on4)CC3)nc3c(F)c(-c4cc(O)cc5ccccc45)c(Cl)cc23)C[C@@H]1CC#N (atropisomer, axis not shown) [Compound 154, (2S,4R)-1-[(2S)-2-[3-({1-[2-({6-chloro-4-[(3S)-3-(cyanomethyl)-4-(prop-2-enoyl)piperazin-1-yl]-8-fluoro-7-(3-hydroxynaphthalen-1-yl)quinazolin-2-yl}oxy)ethyl]piperidin-4-yl}methoxy)-1,2-oxazol-5-yl]-3-methylbutanoyl]-4-hydroxy-N-[(1S)-1-[4-(4-methyl-1,3-thiazol-5-yl)phenyl]ethyl]pyrrolidine-2-carboxamide] | – | –
